Data on 6 compounds can be found in publication PMC8151848, “Tambjamines and Prodiginines: Biocidal Activity against Trypanosoma cruzi” (Pharmaceutics, 2021).

Entries after “also recorded” stand apart in the source; their conditions may differ. Like-named read-outs stand apart in the source and are kept apart here.

In test [1] the test system is trypomastigotes/amastigotes of T. cruzi (CLB strain). Description: Trypomastigote/amastigote susceptibility assay in infected L-929 fibroblasts. The test is classed as cell-based, Trypanosoma cruzi. The conditions noted are these: for IC50: CLB strain, 96 h treatment, read-out: IC50 (µM) trypomastigote/amastigote growth inhibition. As to the method:
This assay was performed in 96-well microplates. Briefly, 4 × 10^3 L-929 fibroblasts were seeded in 80 µl of MEM containing 10% FBS and antibiotics. The plate was placed overnight at 37 °C in a 5% CO2 humidified incubator to allow cell adherence. Afterward, the cells were infected with 20 µL of trypomastigotes (40,000 trypomastigotes/well (4000 mammalian cells)) diluted in the same medium. The cell:parasite ratio was 1:10. Plates were incubated for 2 h at 33 °C and 5% CO2. The medium was then discarded to dispose of nonpenetrated parasites and replaced with 200 µL of MEM without phenol red supplemented with FBS and antibiotics. After 48 h of incubation, the content of the wells was replaced with a fresh medium containing the dilutions of the compounds. The plates were returned to the incubator for an additional 96 h under the same conditions. Wells containing drug blanks, medium, fibroblasts, and untreated infected cells were included in all the plates as controls. An internal control of the reference drug (benznidazole) was also included. Next, 50 µl of substrate CPRG (diluted in 3% Triton X-100 solution) were added at a final concentration of 400 µM. After 18–20 h of incubation at 37 °C, absorbance readings were taken at 595 nm using a scanning multiwell spectrophotometer. All the assays were performed in triplicate and the experiments were run three times in different weeks. The results are expressed as the percentage of trypomastigote/amastigote growth inhibition (% T/A GI value) as follows:(2) %Trypomastigote/Amastigote growth inhibition=100−(AE−AEB)/(AC−ACB) ×100 where AE is the absorbance of the experimental group, AEB the absorbance of the compound blank, AC the absorbance of the control group, and ACB the absorbance of the culture medium blank. The IC50 values (the drug concentration that eliminates 50% of the parasites) were determined for each compound using the GraphPad Prism software.

The test system of test [2] is epimastigotes of T. cruzi (CL strain, clone B5). Also on record: method as in PMID 31210760. The following applies: read-out: IC50 against epimastigotes of T. cruzi (earlier study); cited from earlier work.
Test [3] has as its system intact epimastigotes of T. cruzi. Description: Oxygen consumption inhibition analysis (high-resolution respirometry). Type of test: cell-based, Trypanosoma cruzi. The following applies: for % Oxygen Uptake Inhibition (¾ IC50): compound at ¾ IC50; for effect on respiratory inhibition (in words): ½ and ¾ IC50. The protocol:
Intact epimastigotes were collected by centrifugation, washed twice in PBS, and resuspended with respiration buffer containing 125 mM sucrose, 65 mM KCL, 10 mM Tris-HCl (pH 7.2), 1 mM […], and 2.5 mM K2PO4. They were then added to a final concentration of 25 × 10^6 cells/mL.
To evaluate the effect of the different drugs on mitochondrial function, we measured mitochondrial respiration in the cells before and after the addition of increasing volumes of the compounds. Each compound was added in titrations until reaching concentrations of ½ and ¾ IC50. Finally, antimycin A (AA) was added to determine the residual oxygen consumption (ROX) through the inhibition of complex III of the electron transport chain. The ROX value was subtracted from the O2 flux as a baseline for all the respiratory states.
Mitochondrial respiration was measured by high-resolution respirometry (OROBOROS Oxygraph-2k; OROBOROS Instruments, Innsbruck, Austria). Data were analyzed by using the Software DatLab Online Data Acquisition and Analysis (OROBOROS Instruments, Innsbruck, Austria). All respirometry assays were performed at a constant temperature of 28 °C, with the volume of each chamber being 2 mL. The oxygen flux values are expressed relative to the cell concentration per second (pmol/sec/10^6 cells). The effect of each compound on mitochondrial function is shown as the percentage of inhibition of oxygen flux.

The conditions of test [4]: POPC vesicles, external nitrate; ref 1 (Hernando et al., Sci. Rep., 2018); read-out: EC50 (µM) NO3–/Cl–; cited from earlier work.
The subject of the next test is Entamoeba. Also on record: method as in PMID 32196500. The conditions noted are these: read-out: IC50 against Entamoeba; cited from earlier work.
In another test the test system is Giardia. Also on record: method as in PMID 32196500. The conditions noted are these: read-out: IC50 against Giardia; cited from earlier work.
Another test deals with Trypanosoma brucei. Also on record: method as in PMID 32196500. The conditions noted are these: read-out: IC50 against Trypanosoma brucei; cited from earlier work.
Where [5] appears, read: IC50 for L-929 fibroblasts / IC50 for T. cruzi trypomastigotes/amastigotes.
[6] abbreviates: Trypanosoma cruzi, L929, highest concentration assayed (16 µM), n = 9, read-out: % Trypomastigote/Amastigote Growth Inhibition (%T/A GI ± SD).

`O=C(Cn1ccnc1[N+](=O)[O-])NCc1ccccc1` [Benznidazole, reference compound]: in test [1] (setting [5]), the “Selectivity index (SI), Trypomastigotes” value is given as 779.71. Moreover, the IC50 is 1.76 ± 0.34 µM in test [1] (Trypanosoma cruzi, L929) and 18000 nM in test [2]. Further, the inhibition at 16 µM in test [1] (setting [6]) stood at 76 ± 5.02%.
`CCc1c(-c2ccc[nH]2)[nH]c(/C=N/C2CCCCC2)c1C` [MM3]: the “Selectivity index (SI), Trypomastigotes” value in test [1] (setting [5]) was found to be 6.42. Also, the IC50 in test [1] (Trypanosoma cruzi, L929) stood at 1.9 ± 0.45 µM. The inhibition at 16 µM in test [1] (setting [6]) was found to be 97.1 ± 3.01%. Moreover, the “% Oxygen Uptake Inhibition (½ IC50)” value in test [3] (compound at ½ IC50) stood at 41.26%. Moreover, the “Oxygen Uptake (pmol/sec/Million Cells)” value in test [3] (compound at ½ IC50, n = 4) is recorded as 1.58 ± 0.05 pmol/sec/Million Cells; in test [3] (compound at ¾ IC50, n = 4) it was 1.56 ± 0.06 pmol/sec/Million Cells. Moreover, in test [3], the “% Oxygen Uptake Inhibition (¾ IC50)” value is on record as 42%. Moreover, the EC50 in test [4] is 0.035 µM.
In the case of `CCc1c(-c2ccc[nH]2)[nH]c(/C=N/c2ccc(C(C)(C)C)cc2)c1C` [MM4], the “% Oxygen Uptake Inhibition (½ IC50)” value in test [3] (compound at ½ IC50) worked out at 2.60%. Moreover, in test [3] (compound at ½ IC50, n = 4), the “Oxygen Uptake (pmol/sec/Million Cells)” value is listed as 2.62 ± 0.04 pmol/sec/Million Cells. Besides, in test [3], the “% Oxygen Uptake Inhibition (¾ IC50)” value is 2.97% and the “effect on respiratory inhibition (in words)” value is listed as “little or no effect; also recorded: no inhibitory effect”. The “Oxygen Uptake (pmol/sec/Million Cells)” value in test [3] (compound at ¾ IC50, n = 4) amounted to 2.61 ± 0.04 pmol/sec/Million Cells.
On to `CCCCCC1=C/C(=C/c2[nH]c(-c3ccc[nH]3)cc2OC)N=C1C` [Natural prodigiosin, prodigiosin], for which the “Selectivity index (SI), Trypomastigotes” value in test [1] (setting [5]) came out at 50. The “% Trypomastigote/Amastigote Growth Inhibition (%T/A GI ± SD)” value in test [1] (highest concentration assayed (16 µM), n = 9) was 100 ± 0%. In test [1], the IC50 was 0.1 ± 0.04 µM. Also, the “% Oxygen Uptake Inhibition (½ IC50)” value was 72.8% in test [3] (compound at ½ IC50) and 73% in test [3] (compound at ½ IC50, listed as natural prodigiosin). For the same compound, the “Oxygen Uptake (pmol/sec/Million Cells)” value in test [3] (compound at ½ IC50, n = 4) was determined as 0.73 ± 0.06 pmol/sec/Million Cells.
On to `COC1=CC(c2cc3ccccc3[nH]2)=N/C1=C\c1[nH]c(C)cc1C` [Obatoclax, reference compound], for which the IC50 with Entamoeba is 500 nM; in test [1] (Trypanosoma cruzi, L929) it was 2.6 ± 0.4 µM; in the test with Giardia, 900 nM; in the test with Trypanosoma brucei it was 40 nM. In addition, in test [1], the “Selectivity index (SI), Trypomastigotes” value is recorded as 2.24. For the same compound, the inhibition at 16 µM in test [1] (setting [6]) was determined as 88.4 ± 6%. Moreover, the “% Oxygen Uptake Inhibition (½ IC50)” value in test [3] (compound at ½ IC50) worked out at 0%. Further, the “Oxygen Uptake (pmol/sec/Million Cells)” value in test [3] (compound at ½ IC50, n = 4) is on record as 2.69 ± 0 pmol/sec/Million Cells; in test [3] (compound at ¾ IC50, n = 4), 2.69 ± 0 pmol/sec/Million Cells. Also, the “% Oxygen Uptake Inhibition (¾ IC50)” value in test [3] was found to be 0%. The “effect on respiratory inhibition (in words)” value in test [3] is “little or no effect”.
As to `CCCCCC1=C/C(=C/c2[nH]c(-c3ccc[nH]3)cc2OC)N=C1C` [Synthetic prodigiosin, prodigiosin], in test [1] (setting [5]), the “Selectivity index (SI), Trypomastigotes” value was 5.36. Further, the inhibition at 16 µM in test [1] (Trypanosoma cruzi, L929, read-out: % Trypomastigote/Amastigote Growth Inhibition (%T/A GI ± SD)) amounted to 100%. For the same compound, the IC50 in test [1] came out at 0.57 ± 0.19 µM. The “% Oxygen Uptake Inhibition (½ IC50)” value in test [3] (compound at ½ IC50) is 13.58%. Further, the “Oxygen Uptake (pmol/sec/Million Cells)” value in test [3] (compound at ½ IC50, n = 4) turned out to be 2.33 ± 0.09 pmol/sec/Million Cells; in test [3] (compound at ¾ IC50, n = 4), 1.74 ± 0.17 pmol/sec/Million Cells. The “% Oxygen Uptake Inhibition (¾ IC50)” value in test [3] is recorded as 35.18%.
